Some results are limits rather than exact numbers.

One assay has as its target RON (human) (Homo sapiens, UniProt Q04912). Kind of assay: RON (human) AlphaScreen kinase assay, Km of ATP. Format: biochemical. To be noted: AlphaScreen, Km of ATP; read-out: RON biochemical IC50. The gist of the method:
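Reaction was started with enzyme and run 30 min at RT. PT66 donor/acceptor beads in an EDTA-containing Tris pH 7.5 buffer were then added, and the signal was read after 1 h.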
On the technique in general: Alpha assays give light when donor and acceptor beads are brought close together.

For another assay, the target named is MET (human) (Homo sapiens, UniProt P08581). Kind of assay: MET (human) AlphaScreen kinase assay, Km of ATP. Format: biochemical. To be noted: AlphaScreen, Km of ATP; read-out: Met biochemical IC50. The gist of the method: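 Human MET at lot-optimised concentration in 50 mM Tris pH 7.4 buffer with 1 mM DTT, compound at 1% DMSO final; enzyme starts the reaction, 60 min at RT.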
MET (human), sequence (P08581 25-1390): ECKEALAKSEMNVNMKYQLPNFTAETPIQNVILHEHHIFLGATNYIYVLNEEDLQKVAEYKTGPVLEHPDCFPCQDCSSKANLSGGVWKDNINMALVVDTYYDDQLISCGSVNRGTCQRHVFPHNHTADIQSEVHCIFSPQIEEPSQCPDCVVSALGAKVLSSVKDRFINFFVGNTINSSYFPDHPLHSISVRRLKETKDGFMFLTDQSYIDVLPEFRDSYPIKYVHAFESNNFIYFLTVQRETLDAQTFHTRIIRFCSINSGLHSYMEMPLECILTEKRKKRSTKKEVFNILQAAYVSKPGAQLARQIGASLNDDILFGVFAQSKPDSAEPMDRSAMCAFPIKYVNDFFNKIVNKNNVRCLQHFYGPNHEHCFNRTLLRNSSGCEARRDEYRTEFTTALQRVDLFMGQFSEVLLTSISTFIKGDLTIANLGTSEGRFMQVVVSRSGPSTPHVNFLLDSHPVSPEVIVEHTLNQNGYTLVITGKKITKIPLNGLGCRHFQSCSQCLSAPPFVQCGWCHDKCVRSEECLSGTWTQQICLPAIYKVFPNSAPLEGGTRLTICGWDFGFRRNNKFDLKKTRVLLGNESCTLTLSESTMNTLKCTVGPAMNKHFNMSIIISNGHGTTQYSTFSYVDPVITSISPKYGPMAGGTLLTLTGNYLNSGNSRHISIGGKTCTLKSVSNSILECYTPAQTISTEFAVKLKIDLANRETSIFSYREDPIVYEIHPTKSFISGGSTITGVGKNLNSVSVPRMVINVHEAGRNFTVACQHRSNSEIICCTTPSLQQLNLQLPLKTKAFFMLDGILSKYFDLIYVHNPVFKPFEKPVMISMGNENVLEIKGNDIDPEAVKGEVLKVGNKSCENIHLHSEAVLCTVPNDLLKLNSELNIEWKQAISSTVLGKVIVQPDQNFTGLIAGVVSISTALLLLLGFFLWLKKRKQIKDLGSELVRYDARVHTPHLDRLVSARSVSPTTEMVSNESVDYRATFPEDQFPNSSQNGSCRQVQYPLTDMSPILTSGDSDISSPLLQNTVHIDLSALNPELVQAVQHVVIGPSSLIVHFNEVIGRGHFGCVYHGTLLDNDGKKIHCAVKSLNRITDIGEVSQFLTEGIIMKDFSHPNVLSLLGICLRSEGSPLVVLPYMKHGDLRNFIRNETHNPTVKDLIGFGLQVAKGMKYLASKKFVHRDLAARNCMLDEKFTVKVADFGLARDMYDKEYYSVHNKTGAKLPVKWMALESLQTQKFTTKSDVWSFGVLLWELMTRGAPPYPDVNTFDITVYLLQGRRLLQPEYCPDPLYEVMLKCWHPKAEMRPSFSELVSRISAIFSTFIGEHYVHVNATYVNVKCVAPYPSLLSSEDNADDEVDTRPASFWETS

RON (human), sequence (Q04912 25-1400): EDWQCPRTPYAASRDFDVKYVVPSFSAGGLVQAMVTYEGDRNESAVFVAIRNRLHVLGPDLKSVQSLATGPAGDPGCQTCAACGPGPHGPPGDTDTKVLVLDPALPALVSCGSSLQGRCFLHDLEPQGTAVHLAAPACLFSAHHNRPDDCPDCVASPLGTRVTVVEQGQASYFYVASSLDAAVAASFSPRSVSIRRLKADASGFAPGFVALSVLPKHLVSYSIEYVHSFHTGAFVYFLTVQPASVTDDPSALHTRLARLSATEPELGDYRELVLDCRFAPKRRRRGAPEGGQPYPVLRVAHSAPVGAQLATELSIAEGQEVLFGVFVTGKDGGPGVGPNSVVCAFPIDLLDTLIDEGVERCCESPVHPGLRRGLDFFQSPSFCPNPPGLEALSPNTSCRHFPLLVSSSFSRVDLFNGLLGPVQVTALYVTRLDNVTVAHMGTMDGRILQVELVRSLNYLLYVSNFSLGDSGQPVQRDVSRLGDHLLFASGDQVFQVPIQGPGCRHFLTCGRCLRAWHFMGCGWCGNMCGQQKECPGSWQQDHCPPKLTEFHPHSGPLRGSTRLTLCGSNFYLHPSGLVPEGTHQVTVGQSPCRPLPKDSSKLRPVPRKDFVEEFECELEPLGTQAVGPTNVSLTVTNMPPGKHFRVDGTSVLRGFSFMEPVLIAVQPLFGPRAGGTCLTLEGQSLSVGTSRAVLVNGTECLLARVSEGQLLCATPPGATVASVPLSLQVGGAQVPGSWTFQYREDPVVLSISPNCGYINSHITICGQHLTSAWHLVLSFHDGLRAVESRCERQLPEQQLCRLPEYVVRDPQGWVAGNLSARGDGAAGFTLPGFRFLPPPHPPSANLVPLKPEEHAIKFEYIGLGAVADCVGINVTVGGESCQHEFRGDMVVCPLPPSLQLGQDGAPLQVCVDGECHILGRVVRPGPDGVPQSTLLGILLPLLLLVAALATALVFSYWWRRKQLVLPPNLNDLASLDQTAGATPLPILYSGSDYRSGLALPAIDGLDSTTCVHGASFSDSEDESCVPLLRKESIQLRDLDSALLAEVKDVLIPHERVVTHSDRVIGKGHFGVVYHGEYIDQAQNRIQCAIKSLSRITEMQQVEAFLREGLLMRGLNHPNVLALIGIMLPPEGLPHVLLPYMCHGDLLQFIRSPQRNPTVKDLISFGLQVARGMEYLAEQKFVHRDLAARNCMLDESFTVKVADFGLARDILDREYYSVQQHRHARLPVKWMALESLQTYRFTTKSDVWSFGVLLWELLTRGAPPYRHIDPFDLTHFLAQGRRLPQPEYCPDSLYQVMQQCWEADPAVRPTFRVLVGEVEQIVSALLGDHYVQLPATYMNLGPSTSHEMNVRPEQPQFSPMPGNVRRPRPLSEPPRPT

By IC50 is commonly meant the concentration that inhibits the measured activity by half. Turning to `C[C@@H](Oc1c(N)ncc2c(-c3cnn(C4CCNCC4)c3)c(Br)oc12)c1c(Cl)ccc(F)c1Cl` [Example 167, 2-Bromo-7-[(R)-1-(2,6-dichloro-3-fluorophenyl)ethoxy]-3-(1-piperidin-4-yl-1H-pyrazol-4-yl)-furo[3,2-c]pyridin-6-ylamine], the IC50 on RON (human) is 500 to 5000 nM; at MET (human), less than 500 nM.

In the case of `Cc1oc2c(O[C@H](C)c3c(Cl)ccc(F)c3Cl)c(N)ncc2c1-c1cnn(C2CCNCC2)c1` [Example 168, 7-[(R)-1-(2,6-Dichloro-3-fluorophenyl)ethoxy]-2-methyl-3-(1-piperidin-4-yl-1H-pyrazol-4-yl)-furo[3,2-c]pyridin-6-ylamine], the IC50 at RON (human) was 500 to 5000 nM; on MET (human) it was less than 500 nM.

With `C[C@@H](Oc1c(N)ncc2c(-c3cnn(C4CCNCC4)c3)c(C#N)oc12)c1c(Cl)ccc(F)c1Cl` [Example 169, 6-Amino-7-[(R)-1-(2,6-dichloro-3-fluorophenyl)ethoxy]-3-(1-piperidin-4-yl-1H-pyrazol-4-yl)-furo[3,2-c]pyridine-2-carbonitrile], the IC50 on RON (human) and on MET (human) was 500 to 5000 nM in each case.

As to `C[C@@H](Oc1c(N)ncc2c(-c3cnn(C4CCNCC4)c3)c(-c3ccccc3)oc12)c1c(Cl)ccc(F)c1Cl` [Example 170, 7-[(R)-1-(2,6-Dichloro-3-fluorophenyl)ethoxy]-2-phenyl-3-(1-piperidin-4-yl-1H-pyrazol-4-yl)-furo[3,2-c]pyridin-6-ylamine], the concentration for half-maximal inhibition (IC50) on RON (human) and on MET (human) was 500 to 5000 nM each time.

Regarding `C[C@@H](Oc1c(N)ncc2c(-c3cnn(C4CCNCC4)c3)c(C#CC(C)(C)O)oc12)c1c(Cl)ccc(F)c1Cl` [Example 171, 4-[6-Amino-7-[(R)-1-(2,6-dichloro-3-fluorophenyl)ethoxy]-3-(1-piperidin-4-yl-1H-pyrazol-4-yl)-furo[3,2-c]pyridin-2-yl]-2-methylbut-3-yn-2-ol], the IC50 at RON (human) and at MET (human) was less than 500 nM each time.

As for `C[C@@H](Oc1c(N)ncc2c(-c3cnn(C4CCNCC4)c3)c(C#CCCO)oc12)c1c(Cl)ccc(F)c1Cl` [Example 172, 4-[6-Amino-7-[(R)-1-(2,6-dichloro-3-fluorophenyl)ethoxy]-3-(1-piperidin-4-yl-1H-pyrazol-4-yl)-furo[3,2-c]pyridin-2-yl]-but-3-yn-1-ol], the concentration for half-maximal inhibition (IC50) at RON (human) and on MET (human) was less than 500 nM in each case.

On to `C[C@@H](Oc1c(N)ncc2c(-c3cnn(C4CCNCC4)c3)c(C#CCN)oc12)c1c(Cl)ccc(F)c1Cl` [Example 173, 2-(3-Aminoprop-1-ynyl)-7-[(R)-1-(2,6-dichloro-3-fluorophenyl)ethoxy]-3-(1-piperidin-4-yl-1H-pyrazol-4-yl)-furo[3,2-c]pyridin-6-ylamine], for which the half-maximal inhibitory concentration (IC50) at RON (human) and on MET (human) was less than 500 nM throughout.

On to `COC(=O)c1coc2c(O[C@H](C)c3c(Cl)ccc(F)c3Cl)c(N)ncc12` [Example 175, 6-Amino-7-[(R)-1-(2,6-dichloro-3-fluorophenyl)ethoxy]furo[3,2-c]pyridine-3-carboxylic acid methyl ester], for which the IC50 lay in the range of 5000 to 20000 nM on RON (human) and 500 to 5000 nM at MET (human).

On to `C[C@@H](Oc1c(N)ncc2c(C(=O)O)coc12)c1c(Cl)ccc(F)c1Cl` [Example 176, 6-Amino-7-[(R)-1-(2,6-dichloro-3-fluorophenyl)ethoxy]furo[3,2-c]pyridine-3-carboxylic acid], for which the concentration for half-maximal inhibition (IC50) at RON (human) was 5000 to 20000 nM; on MET (human), 500 to 5000 nM.

For the compound `C[C@@H](Oc1c(N)ncc2c(C(=O)N(C)C)coc12)c1c(Cl)ccc(F)c1Cl` [Example 177, 6-Amino-7-[(R)-1-(2,6-dichloro-3-fluorophenyl)ethoxy]furo[3,2-c]pyridine-3-carboxylic acid dimethylamide], the IC50 at RON (human) lay within 5000 to 20000 nM; at MET (human), 500 to 5000 nM.

Take `CCNC(=O)c1coc2c(O[C@H](C)c3c(Cl)ccc(F)c3Cl)c(N)ncc12` [Example 179, 6-Amino-7-[(R)-1-(2,6-dichloro-3-fluorophenyl)ethoxy]furo[3,2-c]pyridine-3-carboxylic acid ethylamide]: the concentration for half-maximal inhibition (IC50) is 5000 to 20000 nM at RON (human) and less than 500 nM at MET (human).

For the compound `C[C@@H](Oc1c(N)ncc2c(C(N)=O)coc12)c1c(Cl)ccc(F)c1Cl` [Example 180, 6-Amino-7-[(R)-1-(2,6-dichloro-3-fluorophenyl)ethoxy]furo[3,2-c]pyridine-3-carboxamide], the IC50 on RON (human) lay in the range of 5000 to 20000 nM; at MET (human), 500 to 5000 nM.

`C[C@@H](Oc1c(N)ncc2c(C(=O)NC3CCN(C(=O)OC(C)(C)C)CC3)coc12)c1c(Cl)ccc(F)c1Cl` [Example 181, 4-({6-Amino-7-[(R)-1-(2,6-dichloro-3-fluorophenyl)ethoxy]furo[3,2-c]pyridine-3-carbonyl}-amino)-piperidine-1-carboxylic acid tert-butyl ester]: the IC50 at RON (human) was in the range of 5000 to 20000 nM; on MET (human), 500 to 5000 nM.

Consider `C[C@@H](Oc1c(N)ncc2c(C(=O)NC3CCNCC3)coc12)c1c(Cl)ccc(F)c1Cl` [Example 182, 6-Amino-7-[(R)-1-(2,6-dichloro-3-fluorophenyl)ethoxy]furo[3,2-c]pyridine-3-carboxylic acid piperidin-4-ylamide], for which the IC50 at RON (human) is 500 to 5000 nM; at MET (human) it was less than 500 nM.

With `CC(C)NC(=O)c1coc2c(O[C@H](C)c3c(Cl)ccc(F)c3Cl)c(N)ncc12` [Example 183, 6-Amino-7-[(R)-1-(2,6-dichloro-3-fluorophenyl)ethoxy]furo[3,2-c]pyridine-3-carboxylic acid isopropylamide], the IC50 at RON (human) and at MET (human) was 500 to 5000 nM in each case.

As to `C[C@@H](Oc1c(N)ncc2c(C(=O)NC(C)(C)C)coc12)c1c(Cl)ccc(F)c1Cl` [Example 184, 6-Amino-7-[(R)-1-(2,6-dichloro-3-fluorophenyl)ethoxy]furo[3,2-c]pyridine-3-carboxylic acid tert-butylamide], the IC50 on RON (human) lay within 5000 to 20000 nM; on MET (human) it was 500 to 5000 nM.

For `C[C@@H](Oc1c(N)ncc2c(C(=O)NCC3CCN(C)CC3)coc12)c1c(Cl)ccc(F)c1Cl` [Example 185, 6-Amino-7-[(R)-1-(2,6-dichloro-3-fluorophenyl)ethoxy]furo[3,2-c]pyridine-3-carboxylic acid (1-methylpiperidin-4-ylmethyl)amide], the half-inhibitory concentration (IC50) on RON (human) was 500 to 5000 nM; at MET (human), less than 500 nM.

Turning to `C[C@@H](Oc1c(N)ncc2c(C(=O)NC3CCN(C)CC3)coc12)c1c(Cl)ccc(F)c1Cl` [Example 186, 6-Amino-7-[(R)-1-(2,6-dichloro-3-fluorophenyl)ethoxy]furo[3,2-c]pyridine-3-carboxylic acid (1-methylpiperidin-4-yl)amide], the IC50 on RON (human) was 500 to 5000 nM; on MET (human), less than 500 nM.

In the case of `C[C@@H](Oc1c(N)ncc2c(C(=O)NCC3CCOCC3)coc12)c1c(Cl)ccc(F)c1Cl` [Example 187, 6-Amino-7-[(R)-1-(2,6-dichloro-3-fluorophenyl)ethoxy]furo[3,2-c]pyridine-3-carboxylic acid (tetrahydropyran-4-ylmethyl)amide], the 50% inhibitory concentration (IC50) at RON (human) and on MET (human) was 500 to 5000 nM in each case.

Regarding `C[C@@H](Oc1c(N)ncc2c(C(=O)NCCCN(C)C)coc12)c1c(Cl)ccc(F)c1Cl` [Example 189, 6-Amino-7-[(R)-1-(2,6-dichloro-3-fluorophenyl)ethoxy]furo[3,2-c]pyridine-3-carboxylic acid (3-dimethylaminopropyl)amide], the IC50 at RON (human) was 500 to 5000 nM; on MET (human) it was less than 500 nM.

For `C[C@@H](Oc1c(N)ncc2c(C(=O)NCCN(C)C)coc12)c1c(Cl)ccc(F)c1Cl` [Example 190, 6-Amino-7-[(R)-1-(2,6-dichloro-3-fluorophenyl)ethoxy]furo[3,2-c]pyridine-3-carboxylic acid (3-dimethylaminoethyl)amide], the values for the half-maximal inhibitory concentration (IC50) at RON (human) and on MET (human) were 500 to 5000 nM and less than 500 nM, respectively.

Take `COCCCNC(=O)c1coc2c(O[C@H](C)c3c(Cl)ccc(F)c3Cl)c(N)ncc12` [Example 191, 6-Amino-7-[(R)-1-(2,6-dichloro-3-fluorophenyl)ethoxy]furo[3,2-c]pyridine-3-carboxylic acid (3-methoxypropyl)amide]: the IC50 on RON (human) and on MET (human) was 500 to 5000 nM in each case.

For `COCCNC(=O)c1coc2c(O[C@H](C)c3c(Cl)ccc(F)c3Cl)c(N)ncc12` [Example 192, 6-Amino-7-[(R)-1-(2,6-dichloro-3-fluorophenyl)ethoxy]furo[3,2-c]pyridine-3-carboxylic acid (3-methoxyethyl)amide], the values for the 50% inhibitory concentration (IC50) on RON (human) and on MET (human) were 500 to 5000 nM and less than 500 nM, respectively.

With `C[C@@H](Oc1c(N)ncc2c(C(=O)NCCN)coc12)c1c(Cl)ccc(F)c1Cl` [Example 193, 6-Amino-7-[(R)-1-(2,6-dichloro-3-fluorophenyl)ethoxy]furo[3,2-c]pyridine-3-carboxylic acid (3-aminoethyl)amide], the IC50 on RON (human) was 500 to 5000 nM; at MET (human), less than 500 nM.

`C[C@@H](Oc1c(N)ncc2c(CO)coc12)c1c(Cl)ccc(F)c1Cl` [Example 194, {6-Amino-7-[(R)-1-(2,6-dichloro-3-fluorophenyl)ethoxy]furo[3,2-c]pyridin-3-yl}-methanol]: the IC50 at RON (human) and on MET (human) was 500 to 5000 nM throughout.

`C[C@@H](Oc1c(N)ncc2c(C3CCN(C(N)=O)CC3)coc12)c1c(Cl)ccc(F)c1Cl` [Example 195, 4-{6-Amino-7-[(R)-1-(2,6-dichloro-3-fluorophenyl)ethoxy]furo[3,2-c]pyridin-3-yl}-piperidine-1-carboxamide]: the half-maximal inhibitory concentration (IC50) on RON (human) and at MET (human) was 500 to 5000 nM throughout.

On to `C[C@@H](Oc1c(N)ncc2c(C3=CCN(/C(=N\C#N)N(C)C)CC3)coc12)c1c(Cl)ccc(F)c1Cl` [Example 196, 4-{6-Amino-7-[(R)-1-(2,6-dichloro-3-fluorophenyl)ethoxy]-furo[3,2-c]pyridin-3-yl}-N,N-cyano-N,N-dimethyl-3,6-dihydro-2H-pyridine-1-carboxamidine], for which the IC50 at RON (human) and on MET (human) was 500 to 5000 nM in each case.

The values are drawn from patent publication US8022206B2 (OSI Pharmaceuticals, LLC, priority 2008, dated 2011).
